# In PMC12785325, “Edible Yellow Mealworm-Derived Antidiabetic Peptides: Dual Modulation of α-Glucosidase and Dipeptidyl-Peptidase IV Inhibition Revealed by Integrated Proteomics, Bioassays, and Molecular Docking Analysis” (Foods, 2025):
# pIC50: −log10 of the molar value. Where a SMILES comes first, the peptide text is derived from it.
# Assays:
# [1] = molecular target: T1, DPP-IV (Homo sapiens, UniProt P27487); experiment: DPP-IV inhibitor screening assay (commercial kit, Abcam); format: biochemical; details: IC50 from DPP-IV inhibition rates, '-' = no IC50 given (only three peptides showed inhibitory effects against DPP-IV)
# T1 construct: purchased Abcam (Cambridge, UK)
# Procedure: Subsequently, the screening assay was conducted using a commercial kit (Abcam, Cambridge, UK) following the protocols provided by the manufacturer. The half-maximal inhibitory concentration (IC50) was determined through analysis of DPP-IV inhibition rates, applying the formula outlined in Equation (2):(2) DPP-IV inhibition rate (%) = [(ABlank − ASample)/ABlank] × 100 where A represents the absorbance value.
# [2] = tested on: HepG2 cells; experiment: HepG2 cell viability (CCK-8); format: cell-based, human; details: at certain concentrations within 100-400 μg/mL, 24 h, p < 0.05
# Procedure: HepG2 human hepatocellular carcinoma cells utilized in this study were generously provided by Prof. Fuliang Hu from Zhejiang University’s College of Animal Science (China). Cellular maintenance involved cultivation in HyClone’s high-glucose DMEM medium supplemented with 10% heat-inactivated fetal bovine serum (Gibco, Waltham, MA, USA) and antibiotic agents (100 U/mL penicillin plus 100 μg/mL streptomycin). Cellular propagation was conducted under standard culture conditions (37 °C, 5% CO2 humidified atmosphere), following established protocols.
# To validate whether the bioactive peptides exert toxic effects on cells, the impact of peptide concentrations on cell viability should also be assessed. […] After the treatment period, 10 μL of CCK-8 solution was added, and these 96-well plates were gently shaken and incubated again at 37 °C under 5% CO2 for another 1 h. In the end, the calculation methodology for evaluating the cell viability of bioactive peptides is described in Equation (2) in Section 2.6 to assess the effects of bioactive peptides on cell viability. All blank groups were established using DMEM high-glucose medium devoid of insulin.
# T1 sequence (P27487 whole entry): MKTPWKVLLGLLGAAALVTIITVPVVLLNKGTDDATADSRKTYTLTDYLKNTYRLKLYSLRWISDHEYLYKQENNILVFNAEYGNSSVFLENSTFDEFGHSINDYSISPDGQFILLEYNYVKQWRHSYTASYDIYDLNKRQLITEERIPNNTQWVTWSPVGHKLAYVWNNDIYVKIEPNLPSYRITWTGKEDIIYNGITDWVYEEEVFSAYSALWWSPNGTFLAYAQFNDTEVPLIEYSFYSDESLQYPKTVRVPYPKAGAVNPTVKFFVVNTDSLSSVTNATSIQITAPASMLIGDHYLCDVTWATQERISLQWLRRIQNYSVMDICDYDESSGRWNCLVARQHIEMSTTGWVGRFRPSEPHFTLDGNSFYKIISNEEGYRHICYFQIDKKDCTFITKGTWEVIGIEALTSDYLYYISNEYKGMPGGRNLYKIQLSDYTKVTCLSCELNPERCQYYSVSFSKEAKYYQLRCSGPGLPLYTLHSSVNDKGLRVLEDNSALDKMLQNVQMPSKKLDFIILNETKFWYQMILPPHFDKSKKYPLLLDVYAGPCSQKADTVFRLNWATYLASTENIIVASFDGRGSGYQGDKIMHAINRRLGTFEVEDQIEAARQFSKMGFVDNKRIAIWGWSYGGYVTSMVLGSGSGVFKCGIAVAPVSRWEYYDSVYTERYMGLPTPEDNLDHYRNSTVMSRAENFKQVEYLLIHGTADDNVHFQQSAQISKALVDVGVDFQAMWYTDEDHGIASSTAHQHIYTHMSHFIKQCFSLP
SMILES,pIC50 [1],HepG2 cell viability versus blank group [2]
CC(C)C[C@H](NC(=O)[C@H](C)NC(=O)[C@H](CC(=O)O)NC(=O)[C@H](Cc1ccccc1)NC(=O)[C@@H]1CCCN1C(=O)[C@@H](N)CC(=O)O)C(=O)N1CCC[C@H]1C(=O)N[C@@H](CCCCN)C(=O)O [DK-8] (H-DPFDALPK-OH),–,significantly higher than the blank group
CSCC[C@H](NC(=O)CN)C(=O)N[C@@H](CC(=O)O)C(=O)N[C@@H](Cc1ccccc1)C(=O)N[C@@H](CCC(N)=O)C(=O)N1CCC[C@H]1C(=O)N[C@@H](CCCNC(=N)N)C(=O)O [GR-7] (H-GMDFQPR-OH),–,significantly higher than the blank group

# Second part, led by results:
pIC50 [1],SMILES,HepG2 cell viability versus blank group [2]
< 1.92,NCCCC[C@H](NC(=O)[C@H](Cc1ccccc1)NC(=O)[C@@H]1CCCN1C(=O)[C@@H]1CCCN1C(=O)CNC(=O)[C@H](Cc1ccc(O)cc1)NC(=O)[C@@H](N)CC(=O)O)C(=O)O [DK-7] (H-DYGPPFK-OH),–
< 1.99,CC(C)C[C@H](NC(=O)[C@H](CC(=O)O)NC(=O)[C@H](Cc1ccccc1)NC(=O)[C@@H]1CCCN1C(=O)[C@H](CC(N)=O)NC(=O)[C@@H](N)Cc1ccccc1)C(=O)N[C@H](C(=O)N[C@@H](CCCCN)C(=O)O)[C@@H](C)O [FK-8] (H-FNPFDLTK-OH),–
< 1.85,CC(C)C[C@H](NC(=O)[C@@H](N)CO)C(=O)N[C@@H](Cc1ccccc1)C(=O)N[C@@H](CC(C)C)C(=O)N1CCC[C@H]1C(=O)N[C@@H](CCCCN)C(=O)O [SK-6] (H-SLFLPK-OH),significantly higher than the blank group
